From ChEMBL document CHEMBL1146107, “Investigation of mechanism-based thrombin inhibitors: Implications of a highly conserved water molecule for the binding of coumarins within the S pocket” (Bioorg Med Chem Lett, 2006) come the findings set out here.

The structures appear in SMILES notation. A value given as a limit tells only on which side of the number the result lay.

One may read the IC50 as the concentration that gives 50% inhibition. Low values mean greater potency, high ones weaker potency.

The assay concerns the target Prothrombin (Homo sapiens, UniProt P00734). The assay can be described thus: Inhibition of thrombin.
`Nc1ccc(OC(=O)c2cc3cc(CCl)ccc3oc2=O)cc1` displayed an IC50 of 48 µM.

The compound `NC(N)=NCCCOC(=O)c1cc2cc(CCl)ccc2oc1=O` registered an IC50 above 300 µM.

`NCCOC(=O)c1cc2cc(CCl)ccc2oc1=O` had an IC50 of 284 µM.

Compound `NCCCOC(=O)c1cc2cc(CCl)ccc2oc1=O` gave an IC50 above 300 µM.

`Cc1cccc(OC(=O)c2cc3cc(CCl)ccc3oc2=O)n1` had an IC50 of 1.39 µM.

As to `N=C(N)NCCOC(=O)c1cc2cc(CCl)ccc2oc1=O`, 107 µM corresponded to half-maximal inhibition (IC50).

`N=C(N)Nc1cccc(OC(=O)c2cc3cc(CCl)ccc3oc2=O)c1` yielded an IC50 above 300 µM.

The compound `O=C(Oc1cccc(Cl)n1)c1cc2cc(CCl)ccc2oc1=O` came in with an IC50 of 0.87 µM.

`O=C(OC1CCNCC1)c1cc2cc(CCl)ccc2oc1=O`: the IC50 is above 300 µM.

As to `O=C(Oc1cncc(Cl)c1)c1cc2cc(CCl)ccc2oc1=O`, the IC50 is above 300 µM.

Compound `N=C(N)Nc1ccc(OC(=O)c2cc3cc(CCl)ccc3oc2=O)cc1` displayed an IC50 of 151 µM.

In turn, `Nc1cccc(OC(=O)c2cc3cc(CCl)ccc3oc2=O)c1` yielded an IC50 of 1.98 µM.

`NC1CCC(OC(=O)c2cc3cc(CCl)ccc3oc2=O)CC1` (stereo not drawn): the IC50 was above 300 µM.
